Source: patent US20250000989A1, “PYRROLO BENZODIAZEPINE DERIVATIVE, AND CONJUGATE, PREPARATION METHOD AND USE THEREOF” (priority 2021, published 2025)

What was measured:
Assay in all cases: Inhibition of in vitro proliferation of tumor cells by PBD compounds (CTG)
Format in all cases: cell-based
[1] = test system: SK-BR-3 tumor cells (human breast cancer cells); conditions: 144 h, 6 days of culture
Method: (§1) The objective of this assay is to measure the activity of the compounds of the present disclosure in inhibiting the proliferation of different tumor cell lines: SK-BR-3 tumor cells (human breast cancer cells, ATCC, Cat. No. HTB-30), NCI-H23 (human non-small cell lung cancer cells, Nanjing Cobioer, Cat. No. CBP60132), and MKN45 (human gastric cancer cells, Nanjing Cobioer, Cat. No. CBP60488). The cells were treated in vitro with different concentrations of the compounds. After 6 days of culture, the proliferation of the cells was measured using CTG (CellTiter-Glo® Luminescent Cell Viability Assay, Promega, Cat. No. G7573) reagent, and the in vitro activity of the compounds was evaluated based on their IC50 values.
(§2) • 1. Cell culture: SK-BR-3, NCI-H23, and MKN45 cells were separately cultured in McCoy's 5A medium (ThermoFisher, Cat. No. 16600108) and RPMI 1640 medium (ThermoFisher, Cat. No. 11875119) containing 10% FBS (Gibco, 10099-141). • 2. Cell plating: After being digested with trypsin (0.25% Trypsin-EDTA (1×), Life Technologies, Cat. No. 25200-072), the SK-BR-3, NCI-H23, and MKN45 were resuspended in their respective media and counted. The density was adjusted to 1.48×10^4 cells/mL, and the cells were plated onto 96-well plates (corning, Cat. No. 3903) at 135 μL/well, i.e., 2000 cells/well, and cultured at 37° C. for 24 h. • 3. Drug formulation: PBD drugs were formulated in round-bottom 96-well plates. Plate 1: In the first column, the concentration was 0.05 mM; in the second column through the fourth column, a 3-fold serial dilution was performed in DMSO; in the fifth column through the sixth column, a 5-fold serial dilution was performed in DMSO; in the seventh column through the ninth column, a 10-fold serial dilution was performed in DMSO; and the tenth column contained DMSO. Plate 2: Corresponding media were added to the first column through the tenth column at 196 μL/well; 4 μL of solution was transferred from each well of the first column through the tenth column of plate 1 to plate 2 and well mixed with the medium; 15 μL of the mixture was added to the cells plated the day before, and the cells were cultured at 37° C. for another 6 days. • 4. CTG assay: The cell culture plates were taken out and equilibrated to room temperature. CTG was added at 75 μL/well, and the plates were incubated at room temperature in the dark for 10 min. Then luminescence values were measured on a microplate reader (BMG labtech, PHERAstar FS).

[2] = test system: NCI-H23 (human non-small cell lung cancer cells); conditions: 144 h, 6 days of culture
Method: as §1, §2

[3] = test system: MKN45 (human gastric cancer cells); conditions: MKN-45, 144 h, 6 days of culture
Method: as §1, §2

Row | SMILES | IC50 [1] | IC50 [2] | IC50 [3]
1 | COc1cc2c(cc1OCCCCCOc1cc3c(cc1OC)C(=O)N1C=C(c4ccc(N5CCOCC5)cc4)C[C@H]1CN3)N=C[C@@H]1CC3(CC3)CN1C2=O [2-2, (S)-7-Methoxy-8-((5-(((S)-7-methoxy-2-(4-morpholinylphenyl)-5-oxo-5,10,11,11a-tetrahydro-1H-benzo[e]pyrrolo[1,2-a][1,4]diazepin-8-yl)oxy)pentyl)oxy)-1,11a-dihydro-3H,5H-spiro[benzo[e]pyrrolo[1,2-a][1,4]diazepine-2,1′-cyclopropan]-5-one] | 0.05 nM | 0.02 nM | 0.09 nM
2 | COc1cc2c(cc1OCCCCCOc1cc3c(cc1OC1CC1)C(=O)N1CC4(CC4)C[C@H]1C=N3)NC[C@@H]1CC(c3ccc(C4CCOCC4)cc3)=CN1C2=O [2-39, (S)-7-Cyclopropoxy-8-((5-(((S)-7-methoxy-5-oxo-2-(4-(tetrahydro-2H-pyran-4-yl)phenyl)-5,10,11,11a-tetrahydro-1H-benzo[e]pyrrolo[1,2-a][1,4]diazepin-8-yl)oxy)pentyl)oxy)-1,11a-dihydro-3H,5H-spiro[benzo[e]pyrrolo[1,2-a][1,4]diazepine-2,1′-cyclopropan]-5-one] | 0.58 nM | 0.39 nM | 0.84 nM
3 | COc1cc2c(cc1OCCCCCOc1cc3c(cc1OC)C(=O)N1C=C(c4ccc(SC5CCC5)cc4)C[C@H]1CN3)N=C[C@@H]1CC3(CC3)CN1C2=O [2-35, (S)-8-((5-(((S)-2-(4-(Cyclobutylthio)phenyl)-7-methoxy-5-oxo-5,10,11,11a-tetrahydro-1H-benzo[e]pyrrolo[1,2-a][1,4]diazepin-8-yl)oxy)pentyl)oxy)-7-methoxy-1,11a-dihydro-3H,5H-spiro[benzo[e]pyrrolo[1,2-a][1,4]diazepine-2,1′-cyclopropan]-5-one] | 1.7 nM | 0.84 nM | 2.73 nM
4 | COc1ccc(C2=CN3C(=O)c4cc(OC)c(OCCCCCOc5cc6c(cc5OC)C(=O)N5CC7(CC7)C[C@H]5CN6)cc4NC[C@@H]3C2)cc1 [2-27, (S)-7-Methoxy-8-((5-(((S)-7-methoxy-2-(4-methoxyphenyl)-5-oxo-5,10,11,11a-tetrahydro-1H-benzo[e]pyrrolo[1,2-a][1,4]diazepin-8-yl)oxy)pentyl)oxy)-1,10,11,11a-tetrahydro-3H,5H-spiro[benzo[e]pyrrolo[1,2-a][1,4]diazepine-2,1′-cyclopropan]-5-one] | 5 nM | 7.28 nM | 7.51 nM
5 | COc1cc2c(cc1OCCCCCOc1cc3c(cc1OC)C(=O)N1C=C(c4ccc(C5CCN(C(=O)CO)CC5)cc4)C[C@H]1CN3)N=C[C@@H]1CC3(CC3)CN1C2=O [2-10, (S)-8-((5-(((S)-2-(4-(1-(2-Hydroxyacetyl)piperidin-4-yl)phenyl)-7-methoxy-5-oxo-5,10,11,11a-tetrahydro-1H-benzo[e]pyrrolo[1,2-a][1,4]diazepin-8-yl)oxy)pentyl)oxy)-7-methoxy-1,11a-dihydro-3H,5H-spiro[benzo[e]pyrrolo[1,2-a][1,4]diazepine-2,1′-cyclopropan]-5-one] | 0.63 nM | 0.2 nM | 0.61 nM
6 | COc1cc2c(cc1OCCCCCOc1cc3c(cc1OC)C(=O)N1C=C(c4ccc(N5CCN(C(=O)CO)CC5)cc4)C[C@H]1CN3)N=C[C@@H]1CC3(CC3)CN1C2=O [2-32, (S)-8-((5-(((S)-2-(4-(4-(2-Hydroxyacetyl)piperazin-1-yl)phenyl)-7-methoxy-5-oxo-5,10,11,11a-tetrahydro-1H-benzo[e]pyrrolo[1,2-a][1,4]diazepin-8-yl)oxy)pentyl)oxy)-7-methoxy-1,11a-dihydro-3H,5H-spiro[benzo[e]pyrrolo[1,2-a][1,4]diazepine-2,1′-cyclopropan]-5-one] | 0.78 nM | 0.09 nM | 0.13 nM
7 | COc1ccc(C2=CN3C(=O)c4cc(OC)c(OCCCCCOc5cc6c(cc5OC)C(=O)N5[C@H](C=N6)C[C@@H]6C[C@@H]65)cc4NC[C@@H]3C2)cc1 [2-21, (1aS,9aS,10aS)-5-Methoxy-6-((5-(((S)-7-methoxy-2-(4-methoxyphenyl)-5-oxo-5,10,11,11a-tetrahydro-1H-benzo[e]pyrrolo[1,2-a][1,4]diazepin-8-yl)oxy)pentyl)oxy)-1a,9a,10,10a-tetrahydrobenzo[e]cyclopropa[4,5]pyrrolo[1,2-a][1,4]diazepin-3(1H)-one] | 0.28 nM | 0.12 nM | 0.57 nM
8 | COc1cc2c(cc1OCCCCCOc1cc3c(cc1OC)C(=O)N1C=C(c4ccc(C5CCN(CCO)CC5)cc4)C[C@H]1CN3)N=C[C@@H]1CC3(CC3)CN1C2=O [2-9, (S)-8-((5-(((S)-2-(4-(1-(2-Hydroxyethyl)piperidin-4-yl)phenyl)-7-methoxy-5-oxo-5,10,11,11a-tetrahydro-1H-benzo[e]pyrrolo[1,2-a][1,4]diazepin-8-yl)oxy)pentyl)oxy)-7-methoxy-1,11a-dihydro-3H,5H-spiro[benzo[e]pyrrolo[1,2-a][1,4]diazepine-2,1′-cyclopropan]-5-one] | 1.25 nM | 0.23 nM | 0.19 nM
9 | COc1cc2c(cc1OCCCCCOc1cc3c(cc1OC)C(=O)N1C=C(c4ccc(SC5CC5)cc4)C[C@H]1CN3)N=C[C@@H]1CC3(CC3)CN1C2=O [2-3] | 0.2 nM | 0.05 nM | 0.49 nM
10 | COc1cc2c(cc1OCCCCCOc1cc3c(cc1OC)C(=O)N1C=C(c4ccc(N5CCN(C[C@H](O)CO)CC5)cc4)C[C@H]1CN3)N=C[C@@H]1CC3(CC3)CN1C2=O [2-33, (S)-8-((5-(((S)-2-(4-(4-((S)-2,3-Dihydroxypropyl)piperazin-1-yl)phenyl)-7-methoxy-5-oxo-5,10,11,11a-tetrahydro-1H-benzo[e]pyrrolo[1,2-a][1,4]diazepin-8-yl)oxy)pentyl)oxy)-7-methoxy-1,11a-dihydro-3H,5H-spiro[benzo[e]pyrrolo[1,2-a][1,4]diazepine-2,1′-cyclopropan]-5-one] | 0.73 nM | 0.3 nM | 0.38 nM
